Test results reported in ChEMBL document CHEMBL1201862, “PubChem BioAssay data set” (2004).
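Exposure lasted 48 hours, with cells grown in 96-well plates and compounds tested at five concentrations. GI50 marks 50% less growth.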 Activity calls are given as the source filed them. No stated cut-off is given here; in the data, active = GI50 up to about 1.1 µM and inactive = higher.

How the values were obtained:
Assay in all cases: growth of human tumour cells (NCI), 48 h
SF-268 = test system: SF-268
CCRF-CEM = test system: CCRF-CEM
NCI-H226 = test system: NCI-H226
SNB-19 = test system: SNB-19
OVCAR-3 = test system: OVCAR-3
SNB-75 = test system: SNB-75
IGROV-1 = test system: IGROV-1
OVCAR-5 = test system: OVCAR-5
SN12C = test system: SN12C
COLO 205 = test system: COLO 205
SK-MEL-5 = test system: SK-MEL-5
HT-29 = test system: HT-29
A549 = test system: A549
UACC-257 = test system: UACC-257
RPMI-8226 = test system: RPMI-8226
UO-31 = test system: UO-31
SK-MEL-2 = test system: SK-MEL-2
HOP-92 = test system: HOP-92
K562 = test system: K562
RXF 393 = test system: RXF 393

Structure (SMILES) | GI50 (SF-268) | GI50 (CCRF-CEM) | GI50 (NCI-H226) | GI50 (SNB-19) | GI50 (OVCAR-3) | GI50 (SNB-75) | GI50 (IGROV-1) | GI50 (OVCAR-5) | GI50 (SN12C) | GI50 (COLO 205) | GI50 (SK-MEL-5) | GI50 (HT-29) | GI50 (A549) | GI50 (UACC-257) | GI50 (RPMI-8226) | GI50 (UO-31) | GI50 (SK-MEL-2) | GI50 (HOP-92) | GI50 (K562) | GI50 (RXF 393)
O=C1c2ccccc2-c2nnc(-c3ccc([N+](=O)[O-])cc3)cc21 | > 10 µM (inactive) | > 10 µM (inactive) | > 10 µM (inactive) | > 10 µM (inactive) | > 10 µM (inactive) | > 10 µM (inactive) | > 10 µM (inactive) | > 10 µM (inactive) | > 10 µM (inactive) | > 10 µM (inactive) | > 10 µM (inactive) | > 10 µM (inactive) | > 10 µM (inactive) | > 10 µM (inactive) | > 10 µM (inactive) | > 10 µM (inactive) | > 10 µM (inactive) | > 10 µM (inactive) | > 10 µM (inactive) | > 10 µM (inactive)
COc1cc(/C=C/C2=C(C#N)C(=O)OC2(C)C)ccc1O | 46.6 µM (inactive) | 13.3 µM (inactive) | 37.3 µM (inactive) | > 100 µM (inactive) | > 100 µM (inactive) | 82.8 µM (inactive) | > 100 µM (inactive) | > 100 µM (inactive) | 55 µM (inactive) | 45.4 µM (inactive) | > 100 µM (inactive) | 48.2 µM (inactive) | > 100 µM (inactive) | > 100 µM (inactive) | 20.4 µM (inactive) | 44.9 µM (inactive) | > 100 µM (inactive) | > 100 µM (inactive) | 29.1 µM (inactive) | 36.9 µM (inactive)
ClCc1nnc2n1-c1ccc(Cl)cc1SC2 | 2.87 µM (inactive) | 2.19 µM (inactive) | 1.94 µM (inactive) | 13 µM (inactive) | 2.17 µM (inactive) | 3.15 µM (inactive) | 2.94 µM (inactive) | 12.2 µM (inactive) | 7.26 µM (inactive) | 4.06 µM (inactive) | 2.62 µM (inactive) | 3.65 µM (inactive) | 5.05 µM (inactive) | 2.16 µM (inactive) | 3.3 µM (inactive) | 15.1 µM (inactive) | 2.81 µM (inactive) | 2.55 µM (inactive) | 2.9 µM (inactive) | 2.23 µM (inactive)
COc1ccc(Sc2ccccc2N)cc1 | 43.1 µM (inactive) | 14.4 µM (inactive) | 22.7 µM (inactive) | > 100 µM (inactive) | 29.1 µM (inactive) | 19.6 µM (inactive) | 65.2 µM (inactive) | 46.5 µM (inactive) | 33.1 µM (inactive) | 17 µM (inactive) | 22.3 µM (inactive) | 23.3 µM (inactive) | 55 µM (inactive) | 38.5 µM (inactive) | 45.9 µM (inactive) | 21.8 µM (inactive) | > 100 µM (inactive) | 21.1 µM (inactive) | 41.6 µM (inactive) | 25.5 µM (inactive)
Cc1c(N=NN(C)C)cc[n+]([O-])c1C | > 100 µM (inactive) | > 100 µM (inactive) | > 100 µM (inactive) | > 100 µM (inactive) | > 100 µM (inactive) | > 49.7 µM (inactive) | > 100 µM (inactive) | > 100 µM (inactive) | > 100 µM (inactive) | > 100 µM (inactive) | > 100 µM (inactive) | > 100 µM (inactive) | > 100 µM (inactive) | > 100 µM (inactive) | > 100 µM (inactive) | > 100 µM (inactive) | > 100 µM (inactive) | > 100 µM (inactive) | > 100 µM (inactive) | > 100 µM (inactive)
COc1cc(C)cc2c1C(=O)C(NC(C)=O)=CC2=O | > 100 µM (inactive) | 34.3 µM (inactive) | > 100 µM (inactive) | > 100 µM (inactive) | > 100 µM (inactive) | 45.7 µM (inactive) | > 100 µM (inactive) | > 100 µM (inactive) | > 100 µM (inactive) | > 100 µM (inactive) | > 100 µM (inactive) | > 100 µM (inactive) | > 100 µM (inactive) | 57.4 µM (inactive) | > 100 µM (inactive) | > 100 µM (inactive) | > 100 µM (inactive) | 99.8 µM (inactive) | 43.1 µM (inactive) | > 100 µM (inactive)
O=C1Oc2ccc([N+](=O)[O-])cc2N/C1=C\C(=O)c1ccccc1 | > 100 µM (inactive) | 43.5 µM (inactive) | > 100 µM (inactive) | > 100 µM (inactive) | > 100 µM (inactive) | 80 µM (inactive) | > 100 µM (inactive) | > 100 µM (inactive) | 62.1 µM (inactive) | 97.5 µM (inactive) | > 100 µM (inactive) | > 100 µM (inactive) | > 100 µM (inactive) | > 100 µM (inactive) | > 100 µM (inactive) | > 100 µM (inactive) | 27.9 µM (inactive) | > 100 µM (inactive) | > 100 µM (inactive) | > 100 µM (inactive)
[N-]=[N+]=Nc1c(C=O)c(=O)n2c3c(cccc13)CCC2 | 14.4 µM (inactive) | 0.778 µM (active) | 11.9 µM (inactive) | 20 µM (inactive) | 2.28 µM (inactive) | 14.2 µM (inactive) | 11.9 µM (inactive) | 7.24 µM (inactive) | 15.4 µM (inactive) | 2.3 µM (inactive) | 13.8 µM (inactive) | 10 µM (inactive) | 20.8 µM (inactive) | 4.53 µM (inactive) | 2.87 µM (inactive) | 2.49 µM (inactive) | > 10 µM (inactive) | 2.15 µM (inactive) | 2.82 µM (inactive) | 1.76 µM (inactive)
CCCCOP(C)(=O)C(NC(=O)OCC)(C(F)(F)F)C(F)(F)F (stereo not given) | > 100 µM (inactive) | > 100 µM (inactive) | > 100 µM (inactive) | > 100 µM (inactive) | > 100 µM (inactive) | > 100 µM (inactive) | > 100 µM (inactive) | > 100 µM (inactive) | > 100 µM (inactive) | > 100 µM (inactive) | > 100 µM (inactive) | > 100 µM (inactive) | > 100 µM (inactive) | > 100 µM (inactive) | > 100 µM (inactive) | > 100 µM (inactive) | > 100 µM (inactive) | > 100 µM (inactive) | > 100 µM (inactive) | > 100 µM (inactive)
C#CC[C@@]12CC(=O)C[C@@H]1CCC1(C2)OCCO1.C#CC[C@]12CC(=O)CC[C@H]1CC(=O)C2 | > 100 µM (inactive) | 60.1 µM (inactive) | > 100 µM (inactive) | > 100 µM (inactive) | > 100 µM (inactive) | 97.7 µM (inactive) | > 100 µM (inactive) | > 100 µM (inactive) | > 100 µM (inactive) | > 100 µM (inactive) | > 100 µM (inactive) | > 100 µM (inactive) | > 100 µM (inactive) | 90.8 µM (inactive) | > 100 µM (inactive) | > 100 µM (inactive) | > 100 µM (inactive) | > 100 µM (inactive) | 59.7 µM (inactive) | > 100 µM (inactive)
O=C1C(Cl)=C(N2CCC[C@H]2CO)C(=O)c2c(O)ccc(O)c21 | 3.74 µM (inactive) | 0.22 µM (active) | > 10 µM (inactive) | > 10 µM (inactive) | 2.56 µM (inactive) | > 10 µM (inactive) | 4.95 µM (inactive) | > 10 µM (inactive) | 1.71 µM (inactive) | 1.77 µM (inactive) | 1.73 µM (inactive) | 4.18 µM (inactive) | 8.2 µM (inactive) | 1.35 µM (inactive) | 0.379 µM (active) | 2.24 µM (inactive) | 2.53 µM (inactive) | 1.72 µM (inactive) | 0.425 µM (active) | 1.99 µM (inactive)
C/C([O-])=C(/c1nc(-c2ccc([N+](=O)[O-])o2)no1)[n+]1cc(C)ccc1C | 20.3 µM (inactive) | 1.53 µM (inactive) | 15.7 µM (inactive) | 26.7 µM (inactive) | 19.6 µM (inactive) | 17.8 µM (inactive) | 29 µM (inactive) | 21.8 µM (inactive) | 13.6 µM (inactive) | 6.08 µM (inactive) | 10.6 µM (inactive) | 9.79 µM (inactive) | 15 µM (inactive) | 11.9 µM (inactive) | 15.3 µM (inactive) | 21.7 µM (inactive) | 7.94 µM (inactive) | > 100 µM (inactive) | 0.692 µM (active) | 18.7 µM (inactive)
COc1cc(C2c3cc4c(cc3[C@@H](Nc3cccc(C(C)=O)c3)C3COC(=O)[C@H]23)OCO4)cc(OC)c1O (stereo not given in full) | 0.577 µM (active) | 0.0349 µM (active) | 0.236 µM (active) | 0.236 µM (active) | 1.91 µM (inactive) | 0.838 µM (active) | 3.03 µM (inactive) | 2.1 µM (inactive) | 0.405 µM (active) | 1.86 µM (inactive) | 0.411 µM (active) | 1.1 µM (active) | < 0.0184 µM (active) | 1.05 µM (active) | 0.197 µM (active) | 0.291 µM (active) | 2.65 µM (inactive) | 0.478 µM (active) | 0.536 µM (active) | 0.762 µM (active)
O=C1Cc2c(-c3ccccc3)cc(-c3cccc(Cl)c3)nc2-c2ccccc2N1 | 2.73 µM (inactive) | 12.1 µM (inactive) | 4.63 µM (inactive) | 1.64 µM (inactive) | 2.1 µM (inactive) | 1.77 µM (inactive) | 1.2 µM (inactive) | 6.19 µM (inactive) | 1.26 µM (inactive) | 6.62 µM (inactive) | 9.91 µM (inactive) | 1.73 µM (inactive) | 1.82 µM (inactive) | 6.32 µM (inactive) | 15.7 µM (inactive) | 3.14 µM (inactive) | 8 µM (inactive) | 1.34 µM (inactive) | 3.33 µM (inactive) | 2.15 µM (inactive)
